Measurements taken from patent US20250136618A1, “ANTIBIOTIC PYRAZINOTHIAZINE DERIVATIVES AND PROCESS OF PREPARATION THEREOF” (Bugworks Research India PVT Ltd, priority 2021, published 2025).
Values after ≈ are worked out from the molar mass of the structure shown.

Experiments:
Assay type in all cases: cell-based
[1] = system: Klebsiella pneumoniae; assay: MIC90 determination, clinical strains (CLSI)
[2] = system: Proteus mirabilis; assay: MIC90 determination, clinical strains (CLSI)
[3] = system: Providencia rettgeri, P. stuartii; assay: MIC90 determination, clinical strains (CLSI)
[4] = system: Morganella morganii; assay: MIC90 determination, clinical strains (CLSI)
[5] = system: Staphylococcus aureus ATCC 29213; assay: Minimum Inhibitory Concentration (MIC) in LB media
Source text: (§1) The compounds of Formula Ia and Formula Ib are of interest due to their potent antibacterial effects. The ability of the compounds disclosed herein to achieve an antibacterial effect may be evaluated with regard to their ability to inhibit the growth of bacterial species like Escherichia coli ATCC 25922, Staphylococcus aureus ATCC 29213, Klebsiella pneumoniae ATCC 13883, Acinetobacter baumannii ATCC 19606, Pseudomonas aeruginosa ATCC 27853 and Enterococcus faecalis ATCC 29212 using an assay based on the following Minimum Inhibitory Concentration (MIC) protocol:
(§2) The test bacteria were grown in Luria Bertani Broth (HIMEDIA M1245), 25 g of the powder was dissolved in 1000 ml distilled water and sterilized by autoclaving at 15 lbs pressure (121° C.) for 20 minutes. The medium sterility was checked by incubating at 37° C. for a period of 48 h. Bacterial cultures that were stored as glycerol stocks at −80° C. were subcultured on LB agar plates to obtain isolated colonies. A single colony of each strain was cultured in LB broth. The cultures were incubated at 37° C., 200 rpm till they reached an optical density (OD at 600 nm) of 0.8 to 1. This log phase culture was diluted in LB broth to a cell number of 5-8*10^5 CFU/mL to be used as inoculum for MIC experiments. Test compounds were dissolved in dimethyl sulfoxide (DMSO) to a stock concentration of 4 mg/ml. A two-fold dilution series of this DMSO stock was prepared in a 96 well V bottom microtitre plate from rows A to H. A 3 μL volume of these dilutions are transferred to a 96-well flat bottom microtitre assay plate. Controls to monitor the effects of DMSO and media sterility were included. Each well was inoculated with 150 μL of the above diluted culture. The plates were incubated at 37° C. overnight in a humidified incubator. The following morning, the plates were read using a Spectrophotometer at 600 nm wavelength. […] The antibacterial activity (MIC) determined against representative gram-positive (S. aureus, E. faecalis) and gram-negative (E. coli, Aeruginosa, K. pneumoniae, and A. baumannii) pathogen are reported Table 1.

[6] = system: Acinetobacter baumannii ATCC 19606; assay: Minimum Inhibitory Concentration (MIC) in LB media
Source text: as §1, §2

[7] = system: Pseudomonas aeruginosa ATCC 27853; assay: Minimum Inhibitory Concentration (MIC) in LB media
Source text: as §1, §2

[8] = system: Klebsiella pneumoniae ATCC 13883; assay: Minimum Inhibitory Concentration (MIC) in LB media
Source text: as §1, §2

[9] = system: Escherichia coli ATCC 25922; assay: Minimum Inhibitory Concentration (MIC) in LB media
Source text: as §1, §2

[10] = system: Enterococcus faecalis ATCC 29212; assay: Minimum Inhibitory Concentration (MIC) in LB media
Source text: as §1, §2

[11] = biological target: hERG potassium channel (Homo sapiens (Human), UniProt Q12809); assay: hERG inhibition assay (Qpatch HTX automated electrophysiology); details: CHO cell line expressing hERG, whole-cell patch clamp
Sequence of hERG potassium channel (Q12809 whole entry): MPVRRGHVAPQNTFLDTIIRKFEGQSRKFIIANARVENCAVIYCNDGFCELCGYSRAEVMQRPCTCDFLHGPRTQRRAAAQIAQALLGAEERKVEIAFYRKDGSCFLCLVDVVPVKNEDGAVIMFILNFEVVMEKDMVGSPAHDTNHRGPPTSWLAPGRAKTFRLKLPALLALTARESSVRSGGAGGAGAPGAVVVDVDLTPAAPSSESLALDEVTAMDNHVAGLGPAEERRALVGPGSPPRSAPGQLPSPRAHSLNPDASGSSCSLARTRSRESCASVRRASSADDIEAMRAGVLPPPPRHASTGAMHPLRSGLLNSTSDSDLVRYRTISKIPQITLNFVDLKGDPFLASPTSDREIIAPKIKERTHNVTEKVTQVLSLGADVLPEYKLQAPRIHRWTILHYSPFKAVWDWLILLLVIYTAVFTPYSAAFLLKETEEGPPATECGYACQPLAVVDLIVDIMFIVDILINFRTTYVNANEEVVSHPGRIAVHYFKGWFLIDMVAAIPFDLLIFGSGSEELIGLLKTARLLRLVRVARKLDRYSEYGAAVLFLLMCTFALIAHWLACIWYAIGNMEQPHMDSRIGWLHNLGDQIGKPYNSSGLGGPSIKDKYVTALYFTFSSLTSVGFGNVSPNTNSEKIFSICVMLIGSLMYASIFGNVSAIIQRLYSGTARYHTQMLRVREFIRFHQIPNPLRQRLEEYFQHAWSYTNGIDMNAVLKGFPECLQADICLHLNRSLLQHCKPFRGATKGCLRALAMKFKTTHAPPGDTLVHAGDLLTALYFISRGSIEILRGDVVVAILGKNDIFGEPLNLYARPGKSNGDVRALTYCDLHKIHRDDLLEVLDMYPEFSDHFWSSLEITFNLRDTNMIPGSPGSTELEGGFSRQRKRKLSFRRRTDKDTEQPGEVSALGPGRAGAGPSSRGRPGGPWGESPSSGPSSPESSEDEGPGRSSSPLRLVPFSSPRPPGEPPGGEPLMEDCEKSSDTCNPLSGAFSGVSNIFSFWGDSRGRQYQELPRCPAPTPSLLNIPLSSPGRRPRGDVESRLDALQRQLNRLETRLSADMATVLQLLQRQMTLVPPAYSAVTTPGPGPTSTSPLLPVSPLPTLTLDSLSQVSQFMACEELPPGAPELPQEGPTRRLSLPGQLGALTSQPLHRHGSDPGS
Method: Electrophysiological recordings were made from a Chinese Hamster Ovary cell line stably expressing the full-length hERG potassium channel. Single cell ionic currents were measured in whole-cell patch clamp configuration at room temperature (21-23° C.) using the Qpatch HTX platform (Sophion). Intracellular solution contained (mM): 120 KF, 20 KCl, 10 EGTA, 10 HEPES and was buffered to pH 7.3. […] Cells were clamped at a holding potential of −80 mV. Cells were stepped to +20 mV for 2 s then −40 mV for 3 s before returning to the holding potential. […] Compounds were then incubated for 2 minutes prior to a second measurement of ion channel current using an identical pulse train.

[12] = system: Serratia marcescens; assay: MIC90 determination, clinical strains (CLSI)
[13] = system: Enterobacter cloacae; assay: MIC90 determination, clinical strains (CLSI)
[14] = system: Pseudomonas aeruginosa; assay: MIC90 determination, clinical strains (CLSI)
[15] = system: Escherichia coli; assay: MIC90 determination, clinical strains (CLSI)
[16] = system: Acinetobacter baumannii; assay: MIC90 determination, clinical strains (CLSI)
[17] = system: Klebsiella aerogenes, K. oxytoca; assay: MIC90 determination, clinical strains (CLSI)
[18] = system: CHO-K1 cells; assay: In-vitro micronucleus assay
Method: Genetic toxicology studies were performed on the compounds of the present disclosure to assess their ability to cause DNA damage. The in-vitro micronucleus assay measured the concentration (μM) of the compound at which micronuclei formation occurred. A micronuclei formation at lower concentration indicates more genetic damage or genotoxicity.
Micronucleus formation is a hallmark of genotoxicity, and the micronucleus assay is an important component of genotoxicity screening. Micronuclei are chromatin-containing bodies that represent fragments or even whole chromosomes that were not incorporated into a daughter cell nucleus at mitosis. The purpose of the assay is to detect agents that induce chromosome damage leading to the induction of micronuclei in interphase cells. The in vitro micronucleus assay was conducted in CHO-K1 cells according to the procedure described by Diaz, D et al [Mutat Res. 630(1-2):1-13. […] The formation of the micronucleus is identified by image-based high content analysis from binucleated cells.

[19] = system: Citrobacter freundii; assay: MIC90 determination, clinical strains (CLSI)

(S)-5-(((2-((4-Methyl-d3)-3-oxo-1,2,3,4-tetrahydropyrido[2,3-b]pyrazin-6-yl)oxy)ethyl)amino)methyl)-3-(3-oxo-3,4-dihydro-2H-pyrazino[2,3-b][1,4]thiazin-6-yl)oxazolidin-2-one [Compound 10]
MIC 90 Klebsiella pneumoniae ([1]; N=86): 8 µg/mL | MIC 90 Proteus mirabilis ([2]; N=12): 4 µg/mL | MIC 90 Providencia rettgeri, P. stuartii ([3]; N=12): 1 µg/mL | MIC 90 Morganella morganii ([4]; N=11): 1 µg/mL | Minimum Inhibitory Concentration S. aureus ATCC 29213 [5]: <0.015 µg/mL | Minimum Inhibitory Concentration A. baumannii ATCC 19606 [6]: 0.06 µg/mL | Minimum Inhibitory Concentration Aeruginosa ATCC 27853 [7]: 1 µg/mL | Minimum Inhibitory Concentration K. pneumoniae ATCC 13883 [8]: 0.06 µg/mL | Minimum Inhibitory Concentration E. coli ATCC 25922 [9]: 0.06 µg/mL | Minimum Inhibitory Concentration E. faecalis ATCC 29212 [10]: 0.125 µg/mL | IC50 [11]: 157 µM | MIC 90 Serratia marcescens ([12]; N=15): 16 µg/mL | MIC 90 Enterobacter cloacae ([13]; N=26): 8 µg/mL | MIC 90 Pseudomonas aeruginosa ([14]; N=34): 4 µg/mL | MIC 90 Escherichia coli ([15]; N=38): 0.5 µg/mL | MIC 90 Acinetobacter baumannii ([16]; N=38): 1 µg/mL | MIC 90 Klebsiella aerogenes, K. oxytoca ([17]; N=17): 2 µg/mL | genotoxicity risk (in words) [18]: completely devoid of any genotoxicity risk | % (in-vitro micronucleus assay) ([18]; CHO-K1 cells): 0.45% | In vitro micronucleus forming concentration ([18]; CHO-K1 cells): >1000 µM | MIC 90 Citrobacter freundii ([19]; N=19): 2 µg/mL

Cn1c(=O)ccc2ncc(OCCNC[C@@H]3CN(c4cnc5c(n4)NC(=O)CS5)C(=O)O3)nc21 [Compound 4, (R)-5-(((2-((5-methyl-6-oxo-5,6-dihydropyrido[2,3-b]pyrazin-3-yl)oxy)ethyl)amino)methyl)-3-(3-oxo-3,4-dihydro-2H-pyrazino[2,3-b][1,4]thiazin-6-yl)oxazolidin-2-one]
MIC90 ([1]; Klebsiella pneumoniae, N=86, read-out: MIC 90 Klebsiella pneumoniae): 8 µg/mL (≈ 16.5 µM) | MIC90 ([2]; Proteus mirabilis, N=12, read-out: MIC 90 Proteus mirabilis): 4 µg/mL (≈ 8.26 µM) | MIC90 ([3]; N=12, read-out: MIC 90 Providencia rettgeri, P. stuartii): 2 µg/mL (≈ 4.13 µM) | MIC90 ([4]; Morganella morganii, N=11, read-out: MIC 90 Morganella morganii): 2 µg/mL (≈ 4.13 µM) | MIC ([5]; Staphylococcus aureus, ATCC29213, read-out: Minimum Inhibitory Concentration S. aureus ATCC 29213): 0.015 µg/mL (≈ 0.031 µM) | MIC ([6]; Acinetobacter baumannii, ATCC19606): 0.03 µg/mL (≈ 0.0619 µM) | MIC ([7]; Pseudomonas aeruginosa, ATCC27853): 0.5 µg/mL (≈ 1.03 µM) | MIC ([8]; Klebsiella pneumoniae, ATCC13883, read-out: Minimum Inhibitory Concentration K. pneumoniae ATCC 13883): 0.06 µg/mL (≈ 0.124 µM) | MIC ([9]; Escherichia coli, ATCC25922, read-out: Minimum Inhibitory Concentration E. coli ATCC 25922): 0.06 µg/mL (≈ 0.124 µM) | MIC ([10]; Enterococcus faecalis, ATCC29212, read-out: Minimum Inhibitory Concentration E. faecalis ATCC 29212): 0.06 µg/mL (≈ 0.124 µM) | IC50 [11]: > 300 µM | MIC90 ([12]; Serratia marcescens, N=15, read-out: MIC 90 Serratia marcescens): 16 µg/mL (≈ 33 µM) | MIC90 ([13]; Enterobacter cloacae, N=26, read-out: MIC 90 Enterobacter cloacae): 8 µg/mL (≈ 16.5 µM) | MIC90 ([14]; Pseudomonas aeruginosa, N=34, read-out: MIC 90 Pseudomonas aeruginosa): 4 µg/mL (≈ 8.26 µM) | MIC90 ([15]; Escherichia coli, N=38, read-out: MIC 90 Escherichia coli): 0.5 µg/mL (≈ 1.03 µM) | MIC90 ([16]; Acinetobacter baumannii, N=38, read-out: MIC 90 Acinetobacter baumannii): 1 µg/mL (≈ 2.06 µM) | MIC90 ([17]; N=17, read-out: MIC 90 Klebsiella aerogenes, K. oxytoca): 4 µg/mL (≈ 8.26 µM) | % (in-vitro micronucleus assay) ([18]; Chinese hamster): 0.76% | MIC90 ([19]; Citrobacter freundii, N=19, read-out: MIC 90 Citrobacter freundii): 2 µg/mL (≈ 4.13 µM)
